Experimental data reported in patent US20140230091A1, “MODIFIED PLANTS WITH INCREASED OIL CONTENT” (BROOKHAVEN SCIENCE ASSOCIATES, LLC, priority 2011, published 2014).
Marks after values point to notes of the source that are not given here.

Experiments:
ACCase = ACCase enzyme assay on crude cell extracts; type: biochemical, Brassica napus
Experimental: All chemicals were obtained from Sigma and radioisotopes from American Radiolabeled Chemicals. ACCase activity was measured as the acetyl-CoA dependent incorporation of ^14C—NaHC03 into acid and stable products. Crude cell extracts were prepared by grinding fresh cells in 3 volumes (w/v) of 50 mM Tris-Cl, pH 7.5, 100 mM KCl, 5 mM MgCl2, 1 mM DTT, 0.1% TritonX-100, 10% glycerol, and plant protease inhibitor cocktail (Sigma). Homogenate was gently mixed on ice for 10 min and then centrifuged for 5 min at 3000 g. Desalting of extracts was done with PD-10 columns (GE Life Sciences). […] Reactions were initiated by the addition of 5 μlL cell extract and were stopped by the addition of 15 μL 12 N HCL. The contents were dried completely at 55° C. and the solids were resuspended in 30 μL water and counted by liquid scintillation spectroscopy. Minus acetyl-CoA controls were always included. Assays went for 30 min, except when measuring the effects of metabolites (10 min). Metabolites were added to the reaction immediately after cell extract to preserve labile thioester bonds. FFA stock solutions were made in ethanol and acyl-CoAs were suspended in water.

B. napus cells = assay: Quantification of free fatty acid, acyl-ACP and acyl-CoA pools in cells; type: cell-based, Brassica napus; conditions: after three hours of Tween-80 feeding
Experimental: Free fatty acids were extracted from tissue by quenching ˜300 mg of frozen cells in 2 mL boiling isopropanol for 5 min. Once cooled, 2 mL of 0.9% NaCl was added and lipids were extracted twice with 4 mL of hexane. Neutral lipids were separated by TLC and free fatty acids were scraped, made into FAMEs, and analyzed by GC-FID or GC-MS as described above. Acyl-CoAs were extracted from ˜15 mg FW of cells and quantified as previously described (Larson and Graham 2001, Plant J, 25, 115-125). Acyl-ACPs were extracted and quantified as previously described (Kopka, Ohlrogge and Jaworski 1995, Anal Biochem, 224, 51-60) with the following modifications: 1) Internal standards used were 11:0-CoA (Sigma) and 17:0—ACP made from Spinach ACP as previously described (Broadwater and Fox 1999, Protein Expr Purif, 15, 314-326). 2) Fully dissolving TCA precipitated proteins required three extractions with MOPS buffer rather than just one.
1986 Plant Physiol, 82, 771-779). Free fatty acids can be activated by esterification to CoA or ACP before being deposited in cellular lipids. Steady state pools acyl-ACP and acyl-CoA as well as free fatty acids (FFA) were measured in cells fed Tween-80. After three hours of feeding, 18:1 FFA appeared where there was none detected in untreated cells (FIG. 9a). […] In a separate experiment designed to distinguish the incorporation of fatty acids from Tween from secondary effects of feedback inhibition, FFA and acylACPs were analyzed in cells fed ^13C-oleoyl-Tween. […] First, the in vivo concentrations of these intermediates were calculated based on the range of values in FIG. 9 and the water content of the cells. […] However, considering that acyl-ACPs are restricted to the plastid, the volume of which in developing embryos was determined to be 10% of the cell (Mansfield and Briarty 1992, Can J Bot, 70, 151-164), the estimate increased to 5-10 μM. […] Thioesterase activity was measured using the same conditions as the ACCase assay. […]

**Q.** Tween-80 was tested. Which ACCase activity (ACCase; crude extracts of cells fed 10 mM Tween-80 for three hours, mean of four repeats ± SD) did it give?
**A.** 1.73 ± 0.10^a nmol min^−1 mg^−1

**Q.** And the “effect on ACCase activity” value (ACCase; included in assay of crude cell extract, FFA up to 10 μM)?
**A.** no effect

**Q.** And the “change in amount of 18:1-ACP and 18:1-CoA” value (B. napus cells)?
**A.** double in amount
